Values joined by “and” are separate entries in the source; they are usually repeats but may differ in a detail not shown here. Equal entries are not always repeated.
How the values were obtained:
[1] = xn = mol fraction of the nth substance listed; conditions: 101 kPa, Liquid; for speed of sound: Pulse-echo method
[2] = 101 kPa, Liquid; for speed of sound: Pulse-echo method

CCCCCCCO [heptan-1-ol] + OCCO
[1], 298.15 K
Conditions	mass density [kg/m3]	speed of sound [m/s]
x2 = 0	818.793	1327
x2 = 0.0668	826.183	1330.3
x2 = 0.1162	832.262	–
x2 = 0.2007	843.633	1339.2
x2 = 0.2946	858.174	1346.9
x2 = 0.4022	877.754	1359.6
x2 = 0.4834	895.05	1371.6
x2 = 0.5508	911.359	1384.3
x2 = 0.6087	927.049	1398.5
x2 = 0.6766	948.151	1418.2
x2 = 0.7988	994.195	1470.8
x2 = 0.894	1041.3	1538

OCCO [1,2-ethanediol]
[2]
Conditions	mass density [kg/m3]	speed of sound
293.15 K	1113.37	–
298.15 K	–	1654.4 m/s and 1655.2 m/s

OCCO [1,2-ethanediol] + CCO
[1], 298.15 K
Conditions	mass density [kg/m3]	speed of sound [m/s]
x1 = 0.1002	819.39	1187.5
x1 = 0.198	852.357	1231.7
x1 = 0.3014	886.918	1279.7
x1 = 0.3462	901.797	–
x1 = 0.3998	–	1328
x1 = 0.4944	950.526	1374.9
x1 = 0.6428	998.611	1454.5
x1 = 0.7499	1032.4	1513.4
x1 = 0.8498	1063.88	1569.5
x1 = 1	–	1654.4

CCO [ethanol]
[2], 298.15 K
Conditions	mass density [kg/m3]	speed of sound [m/s]
–	785.144	1142

CCCCC(CC)CO (stereo not given) [2-ethyl-1-hexanol] + OCCO
[1], 298.15 K
Conditions	mass density [kg/m3]	speed of sound [m/s]
x2 = 0	828.667	1318.4
x2 = 0.1858	848.929	1334.2
x2 = 0.2952	863.973	1345.5
x2 = 0.4043	881.937	1358.8
x2 = 0.4512	890.807	–
x2 = 0.4914	899.091	1372.4
x2 = 0.599	924.736	1394.9
x2 = 0.6996	954.672	1423.5
x2 = 0.7985	991.938	1468.2
x2 = 0.8507	1015.69	–
x2 = 0.9	1041.98	1539.4

CCCCC(CC)CO (stereo not given) [2-ethyl-1-hexanol]
[2], 298.15 K
Conditions	mass density [kg/m3]	speed of sound [m/s]
–	828.667	1318.4

CCO [ethanol] + OCCO
[1], 298.15 K, x2 = 0
Conditions	mass density [kg/m3]	speed of sound [m/s]
–	785.144	1142

CCCCCCCO [heptan-1-ol]
[2], 298.15 K
Conditions	mass density [kg/m3]	speed of sound [m/s]
–	818.793	1327

CCCCCCCCCO [nonan-1-ol] + OCCO
mass density [kg/m3], [1]
Conditions	x2 = 0	x2 = 0.1047	x2 = 0.204	x2 = 0.2878	x2 = 0.3927	x2 = 0.5203	x2 = 0.5982	x2 = 0.703	x2 = 0.7805	x2 = 0.9004
293.15 K	827.65	837.118	847.778	858.547	874.431	898.673	917.33	948.15	977.295	1038.17
298.15 K	824.238	833.672	844.308	855.056	870.919	895.129	913.771	944.568	973.695	1034.58

CCCCCCCCCO [nonan-1-ol]
[2], Vibrating tube method
Conditions	mass density [kg/m3]
293.15 K	827.65
298.15 K	824.238

OCCO [1,2-ethanediol] + CCCCCCCO
Conditions	speed of sound [m/s]
[1], 298.15 K, x1 = 1	1655.2

OCCO [1,2-ethanediol] + CCCCCCCCCO
Conditions	mass density [kg/m3]
[1], 293.15 K, x1 = 1	1113.37

OCCO [1,2-ethanediol] + CCCCC(CC)CO
Conditions	speed of sound [m/s]
[1], 298.15 K, x1 = 1	1655.2
